# Source: a melting point compilation (Tetko et al.; mined from patent text by program, amines drawn as free bases though some values may be those of a salt)
row,Compound,melting point
1,Cn1cc(C=O)c(-c2ccc([N+](=O)[O-])o2)n1,181 to 182 °C
2,COc1ccc2c(c1)CCC1CCNC(=O)C(CC3(C)OCCO3)=C21 (stereo not drawn),192 to 194 °C
3,CCOC(=O)c1ccc2nc3sc(C(C)C)cc3c(=O)n2c1,122 to 123 °C
4,CC(C)NCCn1c(-c2ccc(O)cc2)cc2c1CCCC2,149 to 150 °C
5,Cc1nn(-c2ccc(F)cc2)cc1C(=O)N(CC(=O)O)c1ccc(N2CCC(O)CC2)c(C#N)c1,124 to 125 °C
6,COc1ccc(Nc2ccnc3nc(C)c(O)cc23)cc1,169 to 174 °C
7,CC12CCC3c4cccc([N+](=O)[O-])c4CCC3C1CCC2O (stereo not drawn),151 to 152 °C
8,CSC(CC(=O)O)c1ccncc1 (stereo not drawn),187 to 189 °C
9,CC(C)Oc1cc(-n2c(Cl)nc(C(F)(F)C(F)(F)F)cc2=O)c(F)cc1Cl,55 to 58 °C
10,Cc1ccc(C(=O)NC(NC(=S)Nc2cccc(C)c2)C(F)(F)F)cc1 (stereo not drawn),197 to 198 °C
11,O=C1N(Cc2ccncn2)c2ccccc2C12COc1cc3c(cc12)CCO3 (stereo not drawn),158 to 160 °C
12,CCOC(=O)C(C#N)=CC=Cc1ccc(C(C)(C)C)cc1,65 to 70 °C
13,Cc1nnc(NCCC2CCCN2C)c2cc3ccccn3c12 (stereo not drawn),169 °C
14,COc1ccc(Nc2cnc3c(NCc4ccccc4)nc(NCCO)nc3c2)cc1OC,149 to 150 °C
15,COC(=O)CNC(=O)c1ccc(NS(=O)(=O)c2ccc(F)cc2)cn1,146 to 148 °C
16,CC(=O)c1ccc2c(C(=O)c3ccc(OCCN4CCCCC4)cc3)c(-c3ccc(O)cc3)sc2c1,97 to 100 °C
17,CCCCCCCC(=O)CCCCCC(=O)N[C@@H](C)C(=O)N[C@H](CCC(=O)OCc1ccccc1)C(N)=O,137 to 141 °C
18,CCNC1(c2ccccc2Cl)C(=O)Nc2ccc(OCC)cc21 (stereo not drawn),195 to 200 °C
19,CCOC(=O)c1nc(Cl)n2c1c(Cl)nc1ccccc12,132 to 135 °C
20,CCCCCC[C@@H]1C[C@H](c2ccc(OC)cc2)C(=O)O1,35 to 36 °C
21,COc1nc2cc(Cl)c(Cl)c(CSCc3ccccc3)c2nc1OC,121 to 122 °C
22,CCOC(=O)c1cnn(C)c1S(N)(=O)=O,102 to 104 °C
23,CCCCc1ccc2c(c1)Cc1ccccc1-2,65 to 66.5 °C
24,CC(C)NC(=O)Cn1c(-c2ccc(Cl)cc2)nc2cccnc21,248 to 249 °C
25,CC(C)C(NC(=O)N(C)Cc1nc2ccccc2[nH]1)C(=O)NN(C(=O)OCc1cccnc1)C(Cc1ccccc1)CC(O)CCc1ccccc1 (stereo not drawn),110 to 114 °C
26,COC(=O)C(CNC(=O)c1ccccc1)NC(=O)C(C)(C)NC(=O)C(SC(C)=O)C(C)C (stereo not drawn),48 to 54 °C

row,Compound,melting point
1,O=C(Nc1ccc(-c2ccccc2)s1)C1CCCCC1,174 °C
2,O=C1c2cccc3c(Cl)c(Cl)cc(c23)C(=O)N1O,267 to 269 °C
3,CCN(C(=O)CN1C(=O)c2ccccc2C1=O)c1ccc(C)c(CO)c1C,205 to 207 °C
4,OCC(F)(F)c1ccccn1,58 to 60 °C
5,O=C(CC(C(=O)O)C1CCCCC1)Nc1cccc(/C=C/c2nc(C3CCC3)cs2)c1 (stereo not drawn),205 to 207 °C
6,Cc1occc1C(=O)Nc1ccc(Cl)c(C2OCCO2)c1,134 to 135 °C
7,CCCCc1nc(Cl)c(CO)n1Cc1ccc(-c2nc3ccccn3c2C(=O)O)cc1,173 to 175 °C
8,Brc1ccc(C2CCN(C3CCC3)CC2)nc1,122 to 124 °C
9,O=[N+]([O-])c1cc2nc(O)c(O)nc2cc1Br,> 300 °C
10,O=C(CCl)Nc1cc(C(=O)O)cc(OCc2ccccc2)c1C(=O)c1ccccc1,214 to 216 °C
11,C=C(CC(O)C(=O)OCC)CC(NC=O)(C(=O)OCC)C(=O)OCC (stereo not drawn),68 °C
12,CCOc1ccc(-c2ccc3c(c2)C=C(C(=O)Nc2ccc(CN(C)C4CCOCC4)cc2)CCS3(=O)=O)cc1OCC,224 to 226 °C
13,Cn1nnnc1C(C=O)=C(c1ccccc1)c1ccccc1,185 to 186 °C
14,CSc1ccc(NC(=O)N2CC(c3ccc(C(F)(F)F)cn3)C(c3ccc(Cl)cc3)=N2)cc1 (stereo not drawn),225 to 226 °C
15,CC(C)C(S)C(=O)NC1(C(=O)NC(Cc2ccc(-c3ccc(F)cc3)cc2)C(=O)O)CCCC1 (stereo not drawn),196 to 198 °C
16,O=C(O)Cc1ccc(Oc2ccc3c(c2)S(=O)(=O)NC2CCCN32)cc1 (stereo not drawn),166 to 169 °C
17,CCn1cc(C(=O)O)c(=O)c2cc(F)c(N3CCN(S(=O)(=O)c4ccc(F)cc4)CC3)c(F)c21,243 to 244 °C
18,CCCCOc1ccc(S(=O)(=O)N2CCC(O)C2)cc1 (stereo not drawn),83 to 84 °C
19,CCOC(=O)c1c(C)nc2scnc2c1NC(C)C,48 to 50 °C
20,C=CCOC(=O)C=CC(=O)NC(N)=O,108 to 110 °C
21,COC(=O)c1ccc(O)c(C=NO)c1,155 °C
22,O=C(Nc1cccc2c1C(=O)OC2=O)c1ccc(Cl)s1,195 °C
23,Cc1nc2c(N)nc3ccccc3c2n1CCOCCNC(=O)NC1CCCCC1,207 to 209 °C
24,COC(=O)/C=C/n1cnc2c(OC)cc(OC)cc2c1=O,224 to 226 °C
25,O=C(NCc1cccnc1)c1ccc2n1Cc1ccccc1N(C(=O)c1ccc(-c3ncccn3)cc1)C2,234 to 236 °C
26,CCOC(=O)CCCNc1ccccc1-c1ccccc1,60 to 62 °C

row,Compound,melting point
1,C=CCNC(=O)[C@H]1NCSC1(C)C,45 to 47 °C
2,CCOC(=O)c1ccc(C#CCOc2cc3c(cc2C=O)C(C)(C)CCC3(C)C)cc1,114 to 115 °C
3,COc1ccc2c(c1)S(=O)(=O)N=CN2CCCl,126 to 130 °C
4,O=c1c(-c2cccc(C(F)(F)F)c2)c[nH]n1-c1cccc(C(F)(F)F)c1,207 to 208 °C
5,COC(=O)c1cc(-c2cccc(C3=NC(C)(C)Cc4cc(OC)c5c(c43)CC(C)(C)O5)c2)ccc1NC(C)=O,116 to 119 °C
6,O=C1CCC(c2ccc(O)cc2)N1 (stereo not drawn),183 °C
7,COc1cc(Nc2nc3cccc(-c4cccc(NC(C)=O)c4)c3o2)cc(OC)c1OC,170 to 172 °C
8,CCOC(=O)C1(O)CC(c2ccncc2)=NNC1=O (stereo not drawn),160 to 163 °C
9,CC(C)CN1N=C2C=NC(c3ccccc3)=CN2C1CC(=O)O (stereo not drawn),160 °C
10,CCOC1(c2ccccc2)CCN(C)CC1O (stereo not drawn),145 to 146 °C
11,N#Cc1cc(N)ccc1N1CCN(CCO)CC1,137 to 138 °C
12,N#CC(C(=O)c1ccc(Cl)cc1)c1ccncc1 (stereo not drawn),225 to 235 °C
13,CC(C)(C)OC(=O)NCCC(=O)NC(CC(=O)OCc1ccccc1)c1ccccc1 (stereo not drawn),124 to 126 °C
14,O=C(O)c1ccc(COCc2csc3nc(C(=O)NCc4cccc(OC(F)(F)F)c4)[nH]c(=O)c23)cc1,248 to 250 °C
15,Fc1ccc(C(F)(F)F)cc1-c1cccn2nc(Cl)nc12,88 to 89 °C
16,O=C1CCC(N2Cc3c(OCc4ccc(CN5CCN(C(=O)C(F)(F)F)CC5)cc4)cccc3C2=O)C(=O)N1 (stereo not drawn),125 to 127 °C
17,CC(O)Cn1nc(-c2cnc3[nH]cc(C(=O)NC(C)C(=O)N4CC(C#N)C4)c3n2)c2ccc(Cl)cc21 (stereo not drawn),160 to 165 °C
18,O=C(Nc1ccc(F)c(C(F)(F)F)c1)N1COc2cc(O)ccc21,171 to 172 °C
19,CCOC(=O)c1cnc2c(c1O)CC(CC)CC2 (stereo not drawn),218 to 220 °C
20,CCOCc1nc2c(N)ncc(C)c2n1CCCCNS(C)(=O)=O,173 to 175 °C
21,CCCn1nc(C(N)=O)cc1CC,105 to 106 °C
22,C=C1C(=O)c2ccccc2OC1c1cccc([N+](=O)[O-])c1 (stereo not drawn),131 to 132 °C
23,CC(C)(C)OC(=O)N[C@H](Cc1ccccc1)C(=O)NCC(=O)OCc1ccccc1,133 to 134 °C
24,NC(=O)CCn1c2ccc(O)cc2c2c3c(c(-c4ccccc4Cl)cc21)C(=O)NC3=O,319 to 322 °C
25,O=Cc1cccc2c1CN(c1ccccc1)C2,120 to 122 °C
26,CC1(C)N=C(SCc2cccc3cccnc23)N=C1SCc1cccc2cccnc12,101 to 104 °C

row,Compound,melting point
1,CC(c1ccc(Br)cc1)N(O)C(N)=O (stereo not drawn),138 to 140 °C
2,Cc1cnc2sc(S(=O)(=O)c3ccccc3)nn2c1=O,198 to 200 °C
3,CSC1CCC2C3CCC4=CC(=O)C=CC4(C)C3(F)C(O)CC12C (stereo not drawn),235 to 236 °C
4,OCc1nc(/C=C/c2ccccc2)ns1,119 to 120 °C
5,COc1cccc(NC(=O)NC2CC(c3ccccc3)CC(Cc3ccccc3)N(CC(=O)OC(C)(C)C)C2=O)c1 (stereo not drawn),95 to 105 °C
6,CCOC(=O)c1cc2cccc(NS(=O)(=O)c3ccsc3C(=O)OC)c2[nH]1,173 to 174 °C
7,Cc1cc(-c2oncc2CO)ccc1Cl,92 to 93 °C
8,CCCCCCCCc1ccc2nc(N)nc(N)c2c1C,262 to 264 °C
9,N#CC(C#N)CC(CC(F)(F)C(F)(F)C(F)(F)C(F)F)S(=O)(=O)C(F)(F)F (stereo not drawn),144 to 146 °C
10,CCOC(=O)C1CCCN(C(=O)/C=C/c2ccc(Sc3ccc4c(c3)OCCO4)c([N+](=O)[O-])c2)C1 (stereo not drawn),73 to 75 °C
11,CNc1nc(C)cc(-n2ccc3ccccc32)n1,160 to 162 °C
12,CCCCCCCCCCCCOCC1CN(c2cc3c(cc2F)c(=O)c(C(=O)O)cn3CC)CCN1C (stereo not drawn),166 to 168 °C
13,O=C(O)c1c(O)cccc1Cc1cccs1,155 to 158 °C
14,Cc1cc2c(cc1O)C(C)(C)CC1(CC(C)(C)c3cc(OCCCO)c(C)cc3O1)O2 (stereo not drawn),175 to 177 °C
15,CCCc1cc(C(=O)O)ccc1OCc1ccccc1,163 °C
16,COc1ccc(C(C)C)cc1-c1cc(-c2nnnn2C2CCN(C(=O)OC(C)(C)C)C2)c(OCc2ccccc2)cc1OCc1ccccc1 (stereo not drawn),73 to 77 °C
17,CC1CCN(c2ccc(N)cc2C(O)c2ccc(Cl)cc2)CC1 (stereo not drawn),89 °C
18,Cc1cc(C=Cc2ccc(-c3ccc(C(F)(F)F)cc3)cc2)ccc1OCC(=O)O,243 to 245 °C
19,Cc1ncn(-c2ccc([N+](=O)[O-])cc2F)n1,105 to 107 °C
20,CC(C)S(=O)(=O)NC(=O)Nc1ccc(Cl)c(C(F)(F)F)c1,135 to 140 °C
21,CNC(=S)C1(c2ccc(Cl)c(Cl)c2)CCCCS1 (stereo not drawn),116 to 117 °C
22,CC1(C)SC2CC(=O)N2C1C#N (stereo not drawn),73 to 75 °C
23,CCCCCOc1cc(C=CC(=O)O)ccc1OC,150 °C
24,CS(=O)(=O)c1cc(S(N)(=O)=O)sc1CO,175 to 178 °C
25,CCCCc1nc(O)cc(COC)n1,96 to 98 °C
